Columns and labels:
Test in all cases: Gene expression in human chondrocyte cells (SW1353), quantitative real-time PCR
Type in all cases: cell-based
Settings in all cases: 12.5 μM compound, SW1353 chondrocytes, IL-1β treated
Human MMP-3 = test system: Human MMP-3
Procedure: (§1) The cells were treated with IL-1β, which is one of the natural mediators that induce cartilage breakdown and is detected in substantial amounts in osteoarthritic cartilage tissues and cells derived thereof. Treatment of cells with IL-1β triggers the expression of genes that are involved in catabolic events, such as MMPs. Also, treatment of the cells with IL-1β reduces the collagen expression levels (compared to untreated cells)
(§2) Chondrocytes (SW1353; purchased from the […] [ATCC]) were grown in cell culture medium according to the instructions from ATCC. For experimental treatments, cells were seeded into 6-well plates and cultured for two days until they reached confluence. Total cellular RNA was extracted from cultured cells and reverse-transcribed as described by Richard et al. Mol. Nutr. Food Res. 49, 431-442, 2005. Expression levels of distinct genes were determined by quantitative real-time PCR as described in Richard et al. Mol. Nutr. Food Res. 49, 431-442, 2005.

Human MMP-1 = test system: Human MMP-1
Procedure: as §1, with “MMPs.” for “MMPs. Also, treatment of the cells with IL-1β reduces the collagen expression levels (compared to untreated cells)”
as §2, with “Mol. Nutr. […] Expression levels” for “Mol. Nutr. Food Res. 49, 431-442, 2005. Expression levels”, “Mol. Nutr.” for “Mol. Nutr. Food Res. 49, 431-442, 2005.”

Human MMP-13 = test system: Human MMP-13
Procedure: as §1, with “MMPs.” for “MMPs. Also, treatment of the cells with IL-1β reduces the collagen expression levels (compared to untreated cells)”
as §2, with “Mol. Nutr. […] Expression levels” for “Mol. Nutr. Food Res. 49, 431-442, 2005. Expression levels”, “Mol. Nutr.” for “Mol. Nutr. Food Res. 49, 431-442, 2005.”

Human collagen II = test system: Human collagen II
Procedure: as §1, with “MMPs.” for “MMPs. Also, treatment of the cells with IL-1β reduces the collagen expression levels (compared to untreated cells)”
as §2, with “Mol. Nutr. […] Expression levels” for “Mol. Nutr. Food Res. 49, 431-442, 2005. Expression levels”, “Mol. Nutr.” for “Mol. Nutr. Food Res. 49, 431-442, 2005.”

Aggrecan = test system: Aggrecan
Procedure: as §1, with “MMPs.” for “MMPs. Also, treatment of the cells with IL-1β reduces the collagen expression levels (compared to untreated cells)”
as §2, with “Mol. Nutr. […] Expression levels” for “Mol. Nutr. Food Res. 49, 431-442, 2005. Expression levels”, “Mol. Nutr.” for “Mol. Nutr. Food Res. 49, 431-442, 2005.”

Human collagen I = test system: Human collagen I
Procedure: as §1, with “MMPs.” for “MMPs. Also, treatment of the cells with IL-1β reduces the collagen expression levels (compared to untreated cells)”
as §2, with “Mol. Nutr. […] Expression levels” for “Mol. Nutr. Food Res. 49, 431-442, 2005. Expression levels”, “Mol. Nutr.” for “Mol. Nutr. Food Res. 49, 431-442, 2005.”

Row | SMILES | Human MMP-3 gene expression level relative to cells treated without the compound (Human MMP-3) [%] | Human MMP-1 gene expression level relative to cells treated without the compound (Human MMP-1) [%] | Human MMP-13 gene expression level relative to cells treated without the compound (Human MMP-13) [%] | Human collagen II gene expression level relative to cells treated without the compound (Human collagen II) [%] | Aggrecan gene expression level relative to cells treated without the compound (Aggrecan) [%] | Human collagen I gene expression level relative to cells treated without the compound (Human collagen I) [%]
1 | COc1c(C(C)C)cc2c(c1O)[C@@]1(C(=O)O)CCCC(C)(C)[C@@H]1CC2 [Carnosic acid-12-methyl ether (XII), Carnosic acid 12-methylether] | 69 | 94 | 60 | 139 | 123 | 
2 | CC(C)c1cc2c(c(O)c1O)C1=C(CC2)C(C)(C)CCC1=O [Sageone (VII), Sageone] | 112 | 3 | 36 |  | 152 | 120
